Data from ChEMBL document CHEMBL1134189, “Synthesis and monoamine transporter affinity of 3beta-(4-(2-pyrrolyl)phenyl)-8-azabicycl” (Bioorg Med Chem Lett, 2001).
pIC50, pKi: −log10 of the molar value.

Assays:
[1] = target: Monoamine transporters; serotonin & dopamine (Rattus norvegicus) (UniProt P31652+P23977); assay: Relative affinity for serotonin and Dopamine transporters; format: protein assay
[2] = target: Sodium-dependent dopamine transporter (Rattus norvegicus, UniProt P23977); assay: Displacement of [125I]RTI-55 from Dopamine transporter of rat striatal membrane
Chain of Sodium-dependent dopamine transporter (P23977 whole entry): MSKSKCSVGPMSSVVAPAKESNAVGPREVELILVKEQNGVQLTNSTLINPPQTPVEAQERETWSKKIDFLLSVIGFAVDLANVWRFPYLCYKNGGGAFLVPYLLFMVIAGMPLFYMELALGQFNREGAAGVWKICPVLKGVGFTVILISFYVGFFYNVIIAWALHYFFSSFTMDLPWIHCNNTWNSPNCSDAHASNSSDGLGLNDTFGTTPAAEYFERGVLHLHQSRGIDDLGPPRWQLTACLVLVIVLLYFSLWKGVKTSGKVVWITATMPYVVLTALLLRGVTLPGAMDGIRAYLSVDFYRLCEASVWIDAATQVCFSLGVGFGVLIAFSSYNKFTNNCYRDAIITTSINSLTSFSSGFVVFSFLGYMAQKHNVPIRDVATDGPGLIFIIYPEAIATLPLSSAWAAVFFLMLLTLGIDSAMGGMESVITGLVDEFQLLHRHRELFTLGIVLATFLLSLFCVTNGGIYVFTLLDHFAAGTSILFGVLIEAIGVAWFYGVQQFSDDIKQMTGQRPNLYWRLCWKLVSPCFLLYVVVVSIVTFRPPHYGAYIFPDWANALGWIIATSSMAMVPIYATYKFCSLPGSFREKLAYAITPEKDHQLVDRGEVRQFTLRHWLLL

[3] = target: Sodium-dependent serotonin transporter (Rattus norvegicus, UniProt P31652); assay: Displacement of [3H]paroxetine from Serotonin transporter of rat frontal cortex membrane; format: tissue-based
Chain of Sodium-dependent serotonin transporter (P31652 whole entry): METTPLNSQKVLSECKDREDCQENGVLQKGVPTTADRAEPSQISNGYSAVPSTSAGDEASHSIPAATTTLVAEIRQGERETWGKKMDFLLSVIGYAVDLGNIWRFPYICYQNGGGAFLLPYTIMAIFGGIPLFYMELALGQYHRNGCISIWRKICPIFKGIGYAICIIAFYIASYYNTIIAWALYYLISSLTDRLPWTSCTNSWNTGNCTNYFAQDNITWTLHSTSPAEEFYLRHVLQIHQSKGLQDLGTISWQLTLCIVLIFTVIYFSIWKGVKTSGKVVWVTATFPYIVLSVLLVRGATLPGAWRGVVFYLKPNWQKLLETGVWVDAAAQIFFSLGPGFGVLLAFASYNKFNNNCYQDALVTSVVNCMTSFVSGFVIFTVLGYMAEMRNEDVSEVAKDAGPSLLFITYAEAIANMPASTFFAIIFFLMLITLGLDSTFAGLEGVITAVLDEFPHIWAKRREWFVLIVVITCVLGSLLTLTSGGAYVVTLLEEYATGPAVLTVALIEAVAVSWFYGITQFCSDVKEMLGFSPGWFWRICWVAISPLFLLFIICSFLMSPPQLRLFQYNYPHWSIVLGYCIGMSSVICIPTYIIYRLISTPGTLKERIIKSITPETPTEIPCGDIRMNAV

Chain of Monoamine transporters; serotonin & dopamine (Rattus norvegicus) (P23977 whole entry, looked up): as the sequence (P23977 whole entry) above
Chain of Monoamine transporters; serotonin & dopamine (Rattus norvegicus) (P31652 whole entry, looked up): as the sequence (P31652 whole entry) above

Compound | Ratio [1] | pIC50 [2] | pKi [3]
CCOC(=O)C1C2CCC(CC1c1ccc(-c3cccn3Cc3ccccc3)cc1)N2 (centres undefined) | 5.06 | 7.49 | 8.20
CCOC(=O)C1C2CCC(CC1c1ccc3c(ccn3CC)c1)N2 (centres undefined) | 0.78 | 8.63 | 8.52
CCOC(=O)C1C2CCC(CC1c1ccc(-c3ccc(C)n3C)cc1)N2 (centres undefined) | 16.8 | 6.08 | 7.31
CCOC(=O)C1C2CCC(CC1c1ccc(-c3cccn3CC)cc1)N2 (centres undefined) | > 63.7 | < 6.00 | 7.80
CCOC(=O)C1C2CCC(CC1c1ccc(-c3ccc(-c4ccccc4)n3C)cc1)N2 (centres undefined) | > 8.93 | < 6.00 | 6.95
CCOC(=O)C1C(c2ccc(-c3c(C)ccn3C)cc2)CC2CCC1N2C (centres undefined) |  | < 6.00 | < 6.00
CCOC(=O)C1C(c2ccc(-c3cccn3Cc3ccccc3)cc2)CC2CCC1N2C (centres undefined) | 0.98 | 7.24 | 7.23
CCOC(=O)C1C(c2ccc(-c3cccn3C)cc2)CC2CCC1N2C (centres undefined) | 27.4 | 6.15 | 7.59
CCOC(=O)C1C2CCC(CC1c1ccc(-c3c(C)ccn3C)cc1)N2 (centres undefined) |  |  | 7.31
CCOC(=O)C1C(c2ccc3c(ccn3C)c2)CC2CCC1N2C (centres undefined) | 0.26 | 9.12 | 8.55
CCOC(=O)C1C(c2ccc(-c3cccn3CC)cc2)CC2CCC1N2C (centres undefined) | > 2.97 | < 6.00 | 6.47
CCOC(=O)C1C2CCC(CC1c1ccc(-c3cccn3C)cc1)N2 (centres undefined) | 585 | 6.21 | 8.98
CCOC(=O)C1C(c2ccc3c(ccn3CC)c2)CC2CCC1N2C (centres undefined) | 0.22 | 8.92 | 8.26
CCOC(=O)C1C2CCC(CC1c1ccc3c(ccn3C)c1)N2 (centres undefined) | 1.57 | 8.56 | 8.76
